The nature of the data set: pKa value was determined. The format is physicochemical.

In ChEMBL document CHEMBL1124765, “Synthesis and biological properties of novel phosphotriesters: a new approach to the introduction of biologically active nucleotides into cells” (J Med Chem, 1990) one finds pKa data, which are given here for 4 molecules.

In the case of `CC(=O)O[C@H]1C[C@H](n2cc(C)c(=O)[nH]c2=O)O[C@@H]1COP(=O)(OC[C@H]1O[C@@H](n2cc(C)c(=O)[nH]c2=O)C[C@@H]1OC(C)=O)Oc1ccc(S(C)(=O)=O)cc1`, the pKa turned out to be 7.83. In the case of `CC(=O)O[C@H]1C[C@H](n2cc(C)c(=O)[nH]c2=O)O[C@@H]1COP(=O)(OC[C@H]1O[C@@H](n2cc(C)c(=O)[nH]c2=O)C[C@@H]1OC(C)=O)Oc1ccc(Cl)cc1`, the pKa was 9.38.

For `CSc1ccc(OP(=O)(OC[C@H]2O[C@@H](n3cc(C)c(=O)[nH]c3=O)C[C@@H]2OC(C)=O)OC[C@H]2O[C@@H](n3cc(C)c(=O)[nH]c3=O)C[C@@H]2OC(C)=O)cc1`, the pKa stood at 9.53.

Take `CC(=O)O[C@H]1C[C@H](n2cc(C)c(=O)[nH]c2=O)O[C@@H]1COP(=O)(OC[C@H]1O[C@@H](n2cc(C)c(=O)[nH]c2=O)C[C@@H]1OC(C)=O)Oc1cc(Cl)ccc1Cl`: the pKa came out at 7.5.

As usually defined, the pKa is the pH at which an ionisable group is half protonated. Read a low pKa as a group that gives up its proton readily.
